# Reference: publication PMC6286365 (Scientific Reports, 2018)
# Entries after “also recorded” stand apart in the source; their conditions may differ.
# Key:
# [1] = In vivo pharmacokinetics, plasma and brain, 10 mg/kg IP; details: male, CD1, mouse, mice
# Protocol: Pharmacokinetic studies in mice were approved by the Animal Care and Use Committee at Johns Hopkins University. Male CD1 mice between 25 and 30 g were obtained from Harlan and maintained on a 12 h light−dark cycle with ad libitum access to food and water. Test compounds were dosed at 10 mg/kg IP at a dosing volume of 10 mL/kg. Blood and brain tissue were collected at 0.25, 0.5, 1, 2, 4 and 6 h post dose (n = 3 per time point). Blood was obtained via cardiac puncture and plasma was harvested from blood by centrifugation at 3000 × g for 15 min and stored at −80 °C. Brain tissues were harvested following blood collection and immediately snap frozen in liquid nitrogen and stored at −80 °C until LC−MS analysis. […] The samples were vortex mixed for 30 secs and centrifuged at 10000 × g for 10 min at 4 °C. Fifty microliter of the supernatant was diluted with 50 µL water and transferred to a 250 µL polypropylene vial sealed with a Teflon cap and analyzed via LC/MS/MS as described above. Plasma concentrations (pmol/mL) as well as tissue concentrations (pmol/g) were determined and plots of mean plasma concentration versus time were constructed for PK analysis. Non-compartmental-analysis modules in Phoenix WinNonlin version 7.0 (Certara USA, Inc., Princeton, NJ) were used to assess pharmacokinetic parameters including maximal concentration (Cmax), time to Cmax (Tmax), and area under the curve extrapolated to infinity (AUC0-∞).
# [2] = biological target: alkaline phosphatase; test: Counter assay without nSMase2 and SM, phosphorylcholine as substrate (enzyme-coupled detection reactions); format: biochemical; details: no nSMase2, no SM; phosphorylcholine 2 μM as substrate
# [3] = tested on: GFAP-GFP mice; test: Striatal IL-1β brain inflammation model: GFP-labeled astrocyte-derived EVs in plasma; format: in vivo, mouse; details: 10 mg/kg IP 0.5 h before IL-1β; 2 h post IL-1β
# Protocol: As we have previously shown[11],[18], striatal injection of IL-1β in mice expressing GFP-GFAP in astroglia triggers a release of GFP-labelled EVs that rapidly enter into plasma, resulting in cytokine upregulation in liver and peripheral immune cell migration into brain[11]. […] There were two groups of mice: the first group was sacrificed 2 h after IL-1β administration by heart puncture, and GFP-labeled circulating EVs were measured with liver cytokines. […] Counting of astrocyte-released EV (GFP+) from blood and liver cytokine analysis was conducted by single injection of DPTIP. Although release of EVs from astrocytes can be initiated immediately after intracranial injection of IL-1β, infiltration of neutrophils in brain parenchyma occurred 12h-24h after the IL-1β injection. […] Western analysis using the isolated exosomal fraction confirmed the presence of CD63 (transmembrane protein), TSG101 (cytosolic protein) and Flotilin-1 (lipid raft associated protein), commonly used EV markers[19],[20]. The GFP signal was an indication that these EVs originated in brain[11] while lack of mitofilin and α-actinin signals indicated the vesicles were not of mitochondrial[21] or cytoskeletal[22] origin respectively (Fig. 6B).
# (§1) Compounds were given 0.5 h before IL-1β dosing. One group of mice was sacrificed 2 h after IL-1β administration to determine effects of the various treatments on extracellular vesicles (EVs) releases from brain and liver cytokine analysis. […] (C) Liver cytokine levels under different treatments as measured by qRT-PCR of RNA isolated from fresh frozen liver tissue. Samples were analyzed in triplicate. **p < 0.01 and *p < 0.05 compared to saline control; ^##p < 0.01 and ^#p < 0.05 compared to IL1-β group. (D) Neutrophil levels in brain as measured by immunohistochemistry using coronal brain sections and Ly6b antibody. (E) Quantitation of (D); **p < 0.01 compared to saline control; ^##p < 0.01 compared to IL1-β group. […]
# [4] = tested on: GFAP-GFP mice; test: Striatal IL-1β brain inflammation model: liver cytokines by qRT-PCR; format: in vivo, mouse; details: 10 mg/kg IP; 2 h post IL-1β
# Protocol: (§2) As we have previously shown[11],[18], striatal injection of IL-1β in mice expressing GFP-GFAP in astroglia triggers a release of GFP-labelled EVs that rapidly enter into plasma, resulting in cytokine upregulation in liver and peripheral immune cell migration into brain[11]. […] There were two groups of mice: the first group was sacrificed 2 h after IL-1β administration by heart puncture, and GFP-labeled circulating EVs were measured with liver cytokines. […] Counting of astrocyte-released EV (GFP+) from blood and liver cytokine analysis was conducted by single injection of DPTIP. Although release of EVs from astrocytes can be initiated immediately after intracranial injection of IL-1β, infiltration of neutrophils in brain parenchyma occurred 12h-24h after the IL-1β injection. […]
# as §1, with “dosing.” for “dosing. One group of mice was sacrificed 2 h after IL-1β administration to determine effects of the various treatments on extracellular vesicles (EVs) releases from brain and liver cytokine analysis.”
# [5] = tested on: GFAP-GFP mice; test: Striatal IL-1β brain inflammation model: neutrophil infiltration into brain (Ly6b immunohistochemistry); format: in vivo, mouse; details: 10 mg/kg IP 0.5 h before and 12 h after IL-1β; 24 h
# Protocol: as §2, with “DPTIP.” for “DPTIP. Although release of EVs from astrocytes can be initiated immediately after intracranial injection of IL-1β, infiltration of neutrophils in brain parenchyma occurred 12h-24h after the IL-1β injection.”
# Compounds were given 0.5 h before IL-1β dosing. […] (C) Liver cytokine levels under different treatments as measured by qRT-PCR of RNA isolated from fresh frozen liver tissue. Samples were analyzed in triplicate. **p < 0.01 and *p < 0.05 compared to saline control; ^##p < 0.01 and ^#p < 0.05 compared to IL1-β group. (D) Neutrophil levels in brain as measured by immunohistochemistry using coronal brain sections and Ly6b antibody. (E) Quantitation of (D); **p < 0.01 compared to saline control; ^##p < 0.01 compared to IL1-β group.
# Coronal brain sections (30 µm) were prepared using a cryostat microtome (Leica). […] Stereological quantitation was performed using a one-in-five series (270-µm spacing), from the rostral point of bregma +1.10 mm to the caudal point of bregma −0.58 mm as previously described.
smiles,measurement,setting,value
"COc1cc(-c2nc(-c3cccs3)c(-c3ccccc3)[nH]2)cc(OC)c1O [DPTIP, 2,6-Dimethoxy-4-(5-Phenyl-4-Thiophen-2-yl-1H-Imidazol-2-yl)-Phenol]",Kp,"[1]; brain and plasma, read-out: AUCbrain/AUCplasma",0.26
same,AUC(0-inf),[1]; brain,2.6 ± 0.5 µM·h
same,Tmax,[1]; brain,30 min
same,AUC(0-inf),[1]; plasma,10 ± 1 µM·h
same,Tmax,[1]; plasma,30 min
same,IC50,[2],> 100 µM
same,reduction of number of astrocyte-derived EVs,[3],51 ± 13%
same,effect on upregulation of liver cytokines upon IL-1β treatment,[4],reduction of cytokine upregulation in liver; also recorded: inhibited
same,reduction of neutrophil migration into brain compared to IL-1β-treated animals,[5],80 ± 23%
